Reference: patent US10179355B2, “Bioremediation enhancing agents and methods of use” (JRW BIOREMEDIATION, LLC, priority 2007, dated 2019)

What was measured:
[1] = tested on: dechlorinating bacteria known to convert PCE to ethene; test: Set D: Efficiency by COD Analysis; type: cell-based, Dehalococcoides and Dehalobacter spp.
Source text: Efficiency may be defined as the percent of electron donor utilized for dechlorination, and may be calculated by dividing the pmoles of Chloride ion generated by the pmoles of electron donor consumed as measured by either Volatile Fatty Acid (VFA) analysis (Sets B, C, and G) or Chemical Oxygen Demand (COD) analysis (Set D and E). The Relative Efficiency of the electron donor utilization may be defined as the Efficiency of the Electron Donor divided by the Efficiency of the Lactate Control.
The COD analysis calculates the utilization of electron donor by measuring the starting COD and the final COD taking the difference and converting mg/L to pmoles of electrons. The pmoles of electrons used for dechlorination was determined from the calculated Chloride produced leading to an Efficiency and Relative Efficiency of electron donor utilization as compared to lactate.

[2] = tested on: dechlorinating bacteria known to convert PCE to ethene; test: Set D: Lactic Acid Solids, PCE dechlorination microcosms (kinetics, Relative Rate); type: cell-based, Dehalococcoides and Dehalobacter spp.
Source text: Certain contaminated materials (or sites) may contain indigenous microbial communities that are sufficient for complete bioremediation of contaminants. For such sites, there is no need to add microbes unless the indigenous microbes are genetically deficient in achieving the desired clean-up goals. For those sites that are microbiologically limited, microorganisms may be added to the contaminated materials (or sites). In one embodiment, the inoculum may be a mixed culture of halo-respiring bacteria that have been enriched to reach an optimal cell density. These mixed cultures of halo-respiring bacteria may be typically obtained from sediment samples from rivers, streams or any waterways. More specifically, the inoculum used in the Examples was originated from a Sangamon River sediment sample (Lodge Park, Piatt County, Ill.) See, e.g., Brennan, R. A., Sanford, R. A. and […]. (2006). “Biodegradation of Tetrachloroethene by Chitin Fermentation Products in a Continuous Flow Column System.” Journal of Environ. Engr., June 665-673. […] Brennan, R. A., and Sanford, R. A. (2002). “Continuous steady-state method using Tenax for delivering tetrachloroethene to chlororespiring bacteria.” Appl. Environ. […] Using 16S rRNA gene-specific primers, both Dehalococcoides and Dehalobacter spp. were detected. […] For purpose of this disclosure, each bottle may be started with a certain amount of PCE. At subsequent times each bottle may be sampled for the degradation daughter products of PCE, namely trichloroethene (TCE), cis-dichloroethene (DCE), vinyl chloride (VC) and ethene, etc. […] The rate of degradation may be determined by calculating the number of pmoles of chloride ions removed from PCE and subsequently from the amounts of the daughter products generated. The calculation may be performed as follows: […] Next, the dechlorination rate may be determined for each bottle at each time by dividing the Chloride generated by the time (days). […] This ratio is called Relative Rate and is dimensionless. As shown in the Examples, a paired t-test has been conducted to calculate the probability that the Relative Rate of one group (i.e. with Nutrient) is greater than the other group (i.e. without Nutrient). The null hypothesis is that the underlying means of the two paired groups are equal. The Probability that one group has higher Relative Rates than the other group is shown in various tables in the Examples. […] Lactic Acid Solids is a mixture of lactic acid, oligimers of lactic acid and residual sugars. […] In addition, this set was used to characterize if and to what extent the Lactic Acid Solids was an efficacious electron donor for anaerobic bioremediation of contaminants in water.

CC(O)C(=O)[O-].[Na+] (stereo not shown) [Lactate Control, sodium lactate]
% of e^− used for dechlor. [1]: 7% | Chloride ([1]; Efficiency by COD Analysis): 64.63 µmol | Relative Efficiency ([1]; relative to Lactate Control): 100% | Cl^− Rate ± s.d. ([2]; 0 days): 0.00 ± 0.00 µmol | Cl^− ± s.d. ([2]; 0 days): 0.00 ± 0.00 µmol | DCE ± s.d. ([2]; 0 days): 0.00 ± 0.00 µmol | Ethene ± s.d. ([2]; 0 days): 0.00 ± 0.00 µmol | PCE ± s.d. ([2]; 0 days): 19.54 ± 0.00 µmol | TCE ± s.d. ([2]; 0 days): 0.00 ± 0.00 µmol | VC ± s.d. ([2]; 0 days): 0.00 ± 0.00 µmol | Cl^− Rate ± s.d. ([2]; 22 days): 2.64 ± 0.00 µmol | Cl^− ± s.d. ([2]; 22 days): 58.02 ± 0.10 µmol | DCE ± s.d. ([2]; 22 days): 10.02 ± 0.06 µmol | Ethene ± s.d. ([2]; 22 days): 0.25 ± 0.07 µmol | PCE ± s.d. ([2]; 22 days): 0.00 ± 0.00 µmol | TCE ± s.d. ([2]; 22 days): 0.00 ± 0.00 µmol | VC ± s.d. ([2]; 22 days): 0.10 ± 0.03 µmol | Cl^− Rate ± s.d. ([2]; 36 days): 1.18 ± 0.01 µmol | Cl^− ± s.d. ([2]; 36 days): 63.68 ± 0.46 µmol | DCE ± s.d. ([2]; 36 days): 7.18 ± 0.26 µmol | Ethene ± s.d. ([2]; 36 days): 0.23 ± 0.19 µmol | PCE ± s.d. ([2]; 36 days): 0.00 ± 0.00 µmol | TCE ± s.d. ([2]; 36 days): 0.01 ± 0.02 µmol | VC ± s.d. ([2]; 36 days): 0.08 ± 0.01 µmol | Cl^− Rate ± s.d. ([2]; 50 days): 1.29 ± 0.06 µmol | Cl^− ± s.d. ([2]; 50 days): 64.63 ± 2.77 µmol | DCE ± s.d. ([2]; 50 days): 4.98 ± 0.67 µmol | Ethene ± s.d. ([2]; 50 days): 0.20 ± 0.09 µmol | PCE ± s.d. ([2]; 50 days): 0.00 ± 0.00 µmol | TCE ± s.d. ([2]; 50 days): 0.00 ± 0.00 µmol | VC ± s.d. ([2]; 50 days): 3.57 ± 1.88 µmol
